{"source": "paper PMC10683025", "about": "“Discovery of a Hydroxylamine-Based Brain-Penetrant EGFR Inhibitor for Metastatic Non-Small-Cell Lung Cancer” (Journal of Medicinal Chemistry, 2023)", "key": {"[1]": {"experiment": "Metabolic stability in hepatocytes", "assay_type": "in vitro ADME, beagle dog", "conditions": "for Remaining Percentages: dog hepatocytes", "method": "Hepatocyte stability was assessed in duplicate (n = 2) at a working cell density of 0.5 × 10^6 cells/mL with hepatocytes from human (BiolVT), Sprague-Dawley rat (BiolVT), cynomolgus monkey (RILD) or beagle dog (BiolVT). […] The in vitro half-life and intrinsic clearances were determined as previously described.[76]\nIn vitro half-life (in vitro t1/2) was determined from the slope value in [drawing 1] where k was determined by linear regression of the natural logarithm of the remaining percentage of the parent drug vs the incubation time curve."}, "CYP1A2": {"molecular_target": "T1, CYP1A2 (Homo sapiens, UniProt P05177)", "T1 construct": "tissue BD Gentest; host or cells: pooled human liver microsomes", "experiment": "CYP450 inhibition in human liver microsomes", "assay_type": "in vitro ADME", "method": "The activities tested were CYP1A2-mediated phenacetin O-demethylation, CYP2C19-mediated (S)-mephenyotin 4′-hydroxylation, CYP2C9-mediated diclofenac 4′-hydroxylation, CYP2D6-mediated dextromethorphan O-demethylation, and CYP3A4-mediated midazolam 1′-hydroxylation. […] The reactions were initiated by adding NADPH (1 mM final concentration) after a 5 min preincubation, and the assay was run in duplicate (n = 2). Samples were analyzed by ultra-performance liquid chromatography tandem mass spectrometry (UPLC-MS/MS)."}, "[2]": {"experiment": "Oral CNS pharmacokinetic assessment", "assay_type": "in vivo, CD1 mice", "conditions": "male, CD1, brain/plasma, Mouse 40 mg/kg (PO)", "procedure": "Animal experiments were performed at Pharmaron, Inc. and animal use was approved by Pharmaron’s Institutional Animal Care and Use Committee (IACUC) in Pharmaron (Pharmaron IACUC, Protocol #PK-M-07182022, #PK-R-06012022, and #ON-CELL-XEN-06012022) following the guidance of AAALAC. Six- to eight-week-old male Sprague-Dawley rats (approximately 200–300 g) obtained from Si Bei Fu Laboratory Animal Technology Co., six- to eight-week-old male CD1 mice (approximately 20–30 g) obtained from Si Bei Fu Laboratory Animal Technology Co., and six- to eight-week-old female BALB/c nude mice (approximately 20–30 g) obtained from Si Bei Fu Laboratory Animal Technology Co., were used in the pharmacokinetic studies. Six- to eight-week-old female BALB/c nude mice (approximately 18–22 g) obtained from Beijing Anikeeper Biotech Co., Ltd. were used in the intracranial PDX study. […]\nOral CNS pharmacokinetic assessment of 9 was done by oral gavage (formulation: 1% methylcellulose) followed by blood and brain sampling at 7 time points (0.25, 0.5, 1, 2, 4, 8, 24 h post dose) with n = 3 animals per time point (n = 21 total). […] Concentrations of 9 in the plasma and brain samples were determined using LC-MS/MS and WinNonlin 8.3 (Phoenix) was used for pharmacokinetic calculations. […]"}, "[3]": {"molecular_target": "T2, ABL1(T315I)-nonphosphorylated (Homo sapiens, UniProt P00519, T315I)", "T2 construct": "purchased Eurofins DiscoverX", "experiment": "KINOMEScan", "assay_type": "binding", "conditions": "read-out: Percent Control", "from_the_text": "(§1) Percent control was mapped onto the kinome tree using TREEspot."}, "[4]": {"molecular_target": "T3, ABL1(T315I)-phosphorylated (Homo sapiens, UniProt P00519, T315I)", "T3 construct": "purchased Eurofins DiscoverX", "experiment": "KINOMEScan", "assay_type": "binding", "conditions": "read-out: Percent Control", "from_the_text": "as §1"}, "ACVR1B": {"molecular_target": "T4, ACVR1B (Homo sapiens, UniProt P36896)", "T4 construct": "purchased Eurofins DiscoverX", "T4 sequence (P36896 24-505)": "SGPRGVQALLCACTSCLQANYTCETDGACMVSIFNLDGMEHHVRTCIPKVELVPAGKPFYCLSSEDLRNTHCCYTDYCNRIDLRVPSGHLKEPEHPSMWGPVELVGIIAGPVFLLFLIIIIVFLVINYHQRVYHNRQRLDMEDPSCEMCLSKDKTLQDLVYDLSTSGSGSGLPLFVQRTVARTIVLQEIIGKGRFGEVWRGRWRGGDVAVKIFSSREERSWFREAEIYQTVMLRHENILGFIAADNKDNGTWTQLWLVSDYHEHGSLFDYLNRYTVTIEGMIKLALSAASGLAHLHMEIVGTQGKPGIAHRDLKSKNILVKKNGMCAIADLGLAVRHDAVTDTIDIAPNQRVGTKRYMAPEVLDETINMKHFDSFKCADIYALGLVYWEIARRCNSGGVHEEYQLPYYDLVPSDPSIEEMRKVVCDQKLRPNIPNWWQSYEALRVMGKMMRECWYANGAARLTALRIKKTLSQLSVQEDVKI", "experiment": "KINOMEScan", "assay_type": "binding", "conditions": "read-out: Percent Control", "from_the_text": "as §1"}, "ACVR2A": {"molecular_target": "T5, ACVR2A (Homo sapiens, UniProt P27037)", "T5 construct": "purchased Eurofins DiscoverX (KINOMEscan)", "T5 sequence (P27037 20-513)": "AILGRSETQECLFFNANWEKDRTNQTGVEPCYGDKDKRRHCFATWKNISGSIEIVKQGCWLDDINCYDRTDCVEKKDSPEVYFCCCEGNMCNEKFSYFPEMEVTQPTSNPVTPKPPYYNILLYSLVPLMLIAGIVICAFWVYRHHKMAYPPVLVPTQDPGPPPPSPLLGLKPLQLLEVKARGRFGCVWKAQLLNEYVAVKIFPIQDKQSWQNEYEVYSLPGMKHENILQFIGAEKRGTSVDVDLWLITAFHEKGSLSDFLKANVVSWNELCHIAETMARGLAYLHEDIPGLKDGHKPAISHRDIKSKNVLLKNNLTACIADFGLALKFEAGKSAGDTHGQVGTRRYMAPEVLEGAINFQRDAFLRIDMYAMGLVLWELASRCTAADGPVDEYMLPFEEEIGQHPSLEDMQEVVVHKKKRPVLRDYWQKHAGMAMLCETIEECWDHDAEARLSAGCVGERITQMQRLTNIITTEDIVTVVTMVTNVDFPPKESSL", "experiment": "KINOMEScan", "assay_type": "binding", "conditions": "read-out: Percent Control", "from_the_text": "as §1"}, "ADCK3": {"molecular_target": "T6, ADCK3 (Homo sapiens, UniProt Q8NI60)", "T6 construct": "purchased Eurofins DiscoverX (KINOMEscan)", "experiment": "KINOMEScan", "assay_type": "binding", "conditions": "ADCK3, 1 µM; read-out: Percent Control", "from_the_text": "as §1"}, "AKT3": {"molecular_target": "T7, AKT3 (Homo sapiens, UniProt Q9Y243)", "T7 construct": "purchased Eurofins DiscoverX (KINOMEscan)", "experiment": "KINOMEScan", "assay_type": "binding", "conditions": "AKT3, 1 µM; read-out: Percent Control", "from_the_text": "as §1"}, "ALK": {"molecular_target": "T8, ALK (Homo sapiens, UniProt Q9UM73)", "T8 construct": "purchased Eurofins DiscoverX (KINOMEscan)", "T8 sequence (Q9UM73 19-1620)": "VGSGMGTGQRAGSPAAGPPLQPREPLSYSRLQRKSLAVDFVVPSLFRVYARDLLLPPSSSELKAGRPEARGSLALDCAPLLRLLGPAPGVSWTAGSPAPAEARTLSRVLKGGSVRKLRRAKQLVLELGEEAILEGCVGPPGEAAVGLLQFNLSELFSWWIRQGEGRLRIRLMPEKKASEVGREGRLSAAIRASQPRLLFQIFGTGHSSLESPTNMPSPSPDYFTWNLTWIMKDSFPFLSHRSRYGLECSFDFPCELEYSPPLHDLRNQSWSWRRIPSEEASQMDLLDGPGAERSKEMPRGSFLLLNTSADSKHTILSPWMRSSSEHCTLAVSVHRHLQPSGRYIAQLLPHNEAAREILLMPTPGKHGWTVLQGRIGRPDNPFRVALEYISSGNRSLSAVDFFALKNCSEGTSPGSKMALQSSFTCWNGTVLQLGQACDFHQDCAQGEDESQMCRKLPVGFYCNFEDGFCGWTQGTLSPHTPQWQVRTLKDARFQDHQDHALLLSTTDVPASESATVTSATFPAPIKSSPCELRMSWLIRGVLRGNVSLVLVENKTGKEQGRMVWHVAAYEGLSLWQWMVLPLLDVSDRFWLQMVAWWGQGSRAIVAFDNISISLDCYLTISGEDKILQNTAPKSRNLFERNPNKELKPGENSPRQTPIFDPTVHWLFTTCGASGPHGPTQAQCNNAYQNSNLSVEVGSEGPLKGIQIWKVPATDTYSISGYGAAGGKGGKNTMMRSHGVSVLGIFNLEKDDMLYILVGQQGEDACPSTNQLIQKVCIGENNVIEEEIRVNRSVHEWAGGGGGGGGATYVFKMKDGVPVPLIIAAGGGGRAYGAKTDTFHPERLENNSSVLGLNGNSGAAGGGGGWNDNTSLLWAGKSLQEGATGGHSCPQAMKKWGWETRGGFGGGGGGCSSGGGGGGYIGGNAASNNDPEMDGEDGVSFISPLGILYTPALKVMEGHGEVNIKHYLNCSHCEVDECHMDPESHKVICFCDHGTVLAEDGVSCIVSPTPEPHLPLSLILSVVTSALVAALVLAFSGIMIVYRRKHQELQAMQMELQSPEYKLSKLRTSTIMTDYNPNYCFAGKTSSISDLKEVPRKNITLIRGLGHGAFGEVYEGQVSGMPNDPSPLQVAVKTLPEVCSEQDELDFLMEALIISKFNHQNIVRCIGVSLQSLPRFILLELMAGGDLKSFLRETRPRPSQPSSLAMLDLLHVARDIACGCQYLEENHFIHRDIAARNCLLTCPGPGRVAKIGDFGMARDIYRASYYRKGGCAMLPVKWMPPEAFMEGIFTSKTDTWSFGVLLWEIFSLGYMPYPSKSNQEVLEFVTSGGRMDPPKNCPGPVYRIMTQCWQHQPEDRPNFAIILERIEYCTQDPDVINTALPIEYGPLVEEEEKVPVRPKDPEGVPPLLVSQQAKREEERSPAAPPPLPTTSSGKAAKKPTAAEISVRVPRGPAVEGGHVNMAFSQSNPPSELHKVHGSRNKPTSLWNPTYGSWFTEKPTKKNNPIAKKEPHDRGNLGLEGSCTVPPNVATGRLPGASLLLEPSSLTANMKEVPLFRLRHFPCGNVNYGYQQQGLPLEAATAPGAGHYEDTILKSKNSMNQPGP", "experiment": "KINOMEScan", "assay_type": "binding", "conditions": "read-out: Percent Control", "from_the_text": "as §1"}, "ALK(L1196M)": {"molecular_target": "T9, ALK(L1196M) (Homo sapiens, UniProt Q9UM73, L1196M)", "T9 construct": "purchased Eurofins DiscoverX (KINOMEscan)", "T9 sequence (Q9UM73 19-1620 L1196M)": "as the sequence (Q9UM73 19-1620) above, with L1178M counted along it", "experiment": "KINOMEScan", "assay_type": "binding", "conditions": "read-out: Percent Control", "from_the_text": "as §1"}, "AMPK-alpha2": {"molecular_target": "T10, AMPK-alpha2 (Homo sapiens, UniProt P54646)", "T10 construct": "purchased Eurofins DiscoverX (KINOMEscan)", "experiment": "KINOMEScan", "assay_type": "binding", "conditions": "AMPK-alpha2, 1 µM; read-out: Percent Control", "from_the_text": "as §1"}, "ANKK1": {"molecular_target": "T11, ANKK1 (Homo sapiens, UniProt Q8NFD2)", "T11 construct": "purchased Eurofins DiscoverX (KINOMEscan)", "T11 sequence (Q8NFD2 whole entry)": "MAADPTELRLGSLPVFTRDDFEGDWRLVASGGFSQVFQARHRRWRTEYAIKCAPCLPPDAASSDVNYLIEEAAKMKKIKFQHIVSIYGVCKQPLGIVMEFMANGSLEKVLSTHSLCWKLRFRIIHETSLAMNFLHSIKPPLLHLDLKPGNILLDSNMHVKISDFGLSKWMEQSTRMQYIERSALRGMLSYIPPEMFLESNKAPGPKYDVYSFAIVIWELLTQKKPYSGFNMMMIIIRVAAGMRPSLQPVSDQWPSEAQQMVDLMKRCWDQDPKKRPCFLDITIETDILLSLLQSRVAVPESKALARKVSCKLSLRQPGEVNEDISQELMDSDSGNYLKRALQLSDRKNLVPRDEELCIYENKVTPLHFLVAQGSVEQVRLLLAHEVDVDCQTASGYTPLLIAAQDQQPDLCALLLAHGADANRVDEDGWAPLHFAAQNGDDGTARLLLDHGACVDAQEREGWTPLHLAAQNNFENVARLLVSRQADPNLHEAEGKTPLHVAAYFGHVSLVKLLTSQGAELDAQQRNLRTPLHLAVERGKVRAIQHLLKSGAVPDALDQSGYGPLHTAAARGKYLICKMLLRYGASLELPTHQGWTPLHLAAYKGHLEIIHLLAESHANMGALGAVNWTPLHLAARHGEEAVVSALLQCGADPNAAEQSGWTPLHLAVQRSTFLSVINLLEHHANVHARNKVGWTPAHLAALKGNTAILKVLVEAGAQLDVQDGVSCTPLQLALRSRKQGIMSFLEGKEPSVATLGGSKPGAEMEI", "experiment": "KINOMEScan", "assay_type": "binding", "conditions": "ANKK1, 1 µM; read-out: Percent Control", "from_the_text": "as §1"}, "AURKC": {"molecular_target": "T12, AURKC (Homo sapiens, UniProt Q9UQB9)", "T12 construct": "purchased Eurofins DiscoverX (KINOMEscan)", "experiment": "KINOMEScan", "assay_type": "binding", "conditions": "read-out: Percent Control"}, "BLK": {"molecular_target": "T13, BLK (Homo sapiens, UniProt P51451)", "T13 construct": "purchased Eurofins DiscoverX (KINOMEscan)", "T13 sequence (P51451 whole entry)": "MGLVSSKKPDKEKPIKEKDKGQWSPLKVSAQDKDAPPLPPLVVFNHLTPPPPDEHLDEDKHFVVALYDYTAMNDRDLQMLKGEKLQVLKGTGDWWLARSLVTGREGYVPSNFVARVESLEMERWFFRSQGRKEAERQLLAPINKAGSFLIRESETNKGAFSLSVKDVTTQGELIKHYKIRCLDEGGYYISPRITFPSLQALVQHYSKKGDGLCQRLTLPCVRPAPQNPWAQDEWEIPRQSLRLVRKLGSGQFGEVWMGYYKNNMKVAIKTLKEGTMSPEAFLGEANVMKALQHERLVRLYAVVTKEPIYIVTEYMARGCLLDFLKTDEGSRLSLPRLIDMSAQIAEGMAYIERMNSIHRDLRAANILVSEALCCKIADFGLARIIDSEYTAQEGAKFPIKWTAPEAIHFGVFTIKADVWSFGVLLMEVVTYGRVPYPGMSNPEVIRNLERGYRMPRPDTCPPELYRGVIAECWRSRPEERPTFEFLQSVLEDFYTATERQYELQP", "experiment": "KINOMEScan", "assay_type": "binding", "conditions": "read-out: Percent Control", "from_the_text": "as §1"}, "WEE2": {"molecular_target": "T14, WEE2 (Homo sapiens, UniProt P0C1S8)", "T14 construct": "purchased Eurofins DiscoverX", "experiment": "KINOMEScan", "assay_type": "binding", "conditions": "WEE2, 1 µM; read-out: Percent Control", "from_the_text": "as §1"}, "WNK1": {"molecular_target": "T15, WNK1 (Homo sapiens, UniProt Q9H4A3)", "T15 construct": "purchased Eurofins DiscoverX", "experiment": "KINOMEScan", "assay_type": "binding", "conditions": "WNK1, 1 µM; read-out: Percent Control", "from_the_text": "as §1"}, "YANK2": {"molecular_target": "T16, YANK2 (Homo sapiens, UniProt Q9NY57)", "T16 construct": "purchased Eurofins DiscoverX (KINOMEScan service)", "T16 sequence (Q9NY57 whole entry)": "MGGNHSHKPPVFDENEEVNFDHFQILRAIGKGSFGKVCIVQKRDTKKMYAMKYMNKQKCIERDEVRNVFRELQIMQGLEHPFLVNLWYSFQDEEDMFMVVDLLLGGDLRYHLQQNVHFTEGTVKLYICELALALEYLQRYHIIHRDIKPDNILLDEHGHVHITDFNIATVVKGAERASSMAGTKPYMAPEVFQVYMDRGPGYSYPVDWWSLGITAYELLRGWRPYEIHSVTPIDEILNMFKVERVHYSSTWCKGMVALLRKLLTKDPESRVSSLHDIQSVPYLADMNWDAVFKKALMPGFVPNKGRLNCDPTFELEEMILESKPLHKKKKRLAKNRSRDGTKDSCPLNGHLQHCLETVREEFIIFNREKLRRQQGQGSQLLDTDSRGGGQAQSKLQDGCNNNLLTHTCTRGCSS", "experiment": "KINOMEScan", "assay_type": "binding", "conditions": "YANK2, 1 µM; read-out: Percent Control", "from_the_text": "as §1"}, "YANK3": {"molecular_target": "T17, YANK3 (Homo sapiens, UniProt Q86UX6)", "T17 construct": "purchased Eurofins DiscoverX (KINOMEScan service)", "experiment": "KINOMEScan", "assay_type": "binding", "conditions": "YANK3, 1 µM; read-out: Percent Control"}, "YES": {"molecular_target": "T18, YES (Homo sapiens, UniProt P07947)", "T18 construct": "purchased Eurofins DiscoverX (KINOMEScan service)", "experiment": "KINOMEScan", "assay_type": "binding", "conditions": "read-out: Percent Control"}, "EGFRwt": {"molecular_target": "T19, EGFRwt (Homo sapiens, UniProt P00533)", "T19 construct": "purchased Eurofins DiscoverX (contract assay)", "experiment": "KINOMEScan", "assay_type": "binding", "conditions": "read-out: Percent Control", "from_the_text": "as §1"}, "CYP2D6": {"molecular_target": "CYP2D6 (Homo sapiens, UniProt P10635)", "sequence (P10635 whole entry)": "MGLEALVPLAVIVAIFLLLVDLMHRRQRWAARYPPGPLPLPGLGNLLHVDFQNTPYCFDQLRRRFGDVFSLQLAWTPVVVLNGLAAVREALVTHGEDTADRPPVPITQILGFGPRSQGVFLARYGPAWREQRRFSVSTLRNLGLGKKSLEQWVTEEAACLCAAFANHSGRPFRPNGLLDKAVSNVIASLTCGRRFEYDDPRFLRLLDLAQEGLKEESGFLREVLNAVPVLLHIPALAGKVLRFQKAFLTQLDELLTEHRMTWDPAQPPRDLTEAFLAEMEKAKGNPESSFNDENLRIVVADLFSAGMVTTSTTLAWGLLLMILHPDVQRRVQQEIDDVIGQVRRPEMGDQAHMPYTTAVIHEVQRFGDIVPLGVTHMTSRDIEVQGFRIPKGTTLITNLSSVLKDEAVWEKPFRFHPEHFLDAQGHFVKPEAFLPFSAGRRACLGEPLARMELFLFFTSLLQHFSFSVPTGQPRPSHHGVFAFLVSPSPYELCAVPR", "experiment": "CYP2D6 time-dependent inhibition in primary human hepatocytes", "conditions": "for Inhibition percentage(%) at Top conc.: human hepatocytes; for IC50 at 5 min: human, primary human hepatocytes, probe dextromethorphan (40 μM), O-demethylation"}, "[5]": {"conditions": "CYP2D6 IC50, human hepatocytes, pre-incubation 30 min"}}}
{"smiles": "COc1cc2ncnc(Nc3cccc(Cl)c3F)c2cc1OCCON1CCN(C)CC1", "note": "[Compound 9, N-(3-Chloro-2-fluorophenyl)-7-methoxy-6-(2-((4-methylpiperazin-1-yl)oxy)ethoxy)quinazolin-4-amine]", "values": [{"measurement": "hepatocyte CLint at 2 h, 1 µM", "setting": "[1]; beagle, dog, hepatocytes", "value": 13, "unit": "µL/min/1e6 cells"}, {"measurement": "Remaining Percentages", "setting": "[1]; 15 min", "value": 88.01, "unit": "%"}, {"measurement": "Remaining Percentages", "setting": "[1]; 30 min", "value": 79.61, "unit": "%"}, {"measurement": "Remaining Percentages", "setting": "[1]; 60 min", "value": 68.74, "unit": "%"}, {"measurement": "Remaining Percentages", "setting": "[1]; 90 min", "value": 60.01, "unit": "%"}, {"measurement": "Remaining Percentages", "setting": "[1]; 120 min", "value": 41.31, "unit": "%"}, {"measurement": "IC50", "setting": "CYP1A2", "value": "> 30", "unit": "µM"}, {"measurement": "Kp at 24 h", "setting": "[2]; read-out: Kp brain (AUCinf)", "value": 0.77}, {"measurement": "Kp uu at 24 h", "setting": "[2]; read-out: Kp,uu brain (AUCinf)", "value": 0.45}, {"measurement": "remaining binding at 1 µM", "setting": "[3]", "value": 68, "unit": "%"}, {"measurement": "remaining binding at 1 µM", "setting": "[4]", "value": 30, "unit": "%"}, {"measurement": "remaining binding at 1 µM", "setting": "ACVR1B", "value": 86, "unit": "%"}, {"measurement": "remaining binding at 1 µM", "setting": "ACVR2A", "value": 100, "unit": "%"}, {"measurement": "remaining binding at 1 µM", "setting": "ADCK3", "value": 90, "unit": "%"}, {"measurement": "remaining binding at 1 µM", "setting": "AKT3", "value": 68, "unit": "%"}, {"measurement": "remaining binding at 1 µM", "setting": "ALK", "value": 89, "unit": "%"}, {"measurement": "remaining binding at 1 µM", "setting": "ALK(L1196M)", "value": 100, "unit": "%"}, {"measurement": "remaining binding at 1 µM", "setting": "AMPK-alpha2", "value": 97, "unit": "%"}, {"measurement": "remaining binding at 1 µM", "setting": "ANKK1", "value": 97, "unit": "%"}, {"measurement": "remaining binding at 1 µM", "setting": "AURKC", "value": 82, "unit": "%"}, {"measurement": "remaining binding at 1 µM", "setting": "BLK", "value": 16, "unit": "%"}, {"measurement": "remaining binding at 1 µM", "setting": "WEE2", "value": 100, "unit": "%"}, {"measurement": "remaining binding at 1 µM", "setting": "WNK1", "value": 100, "unit": "%"}, {"measurement": "remaining binding at 1 µM", "setting": "YANK2", "value": 93, "unit": "%"}, {"measurement": "remaining binding at 1 µM", "setting": "YANK3", "value": 86, "unit": "%"}, {"measurement": "remaining binding at 1 µM", "setting": "YES", "value": 59, "unit": "%"}, {"measurement": "remaining binding at 1 µM", "setting": "EGFRwt", "value": 0.3, "unit": "%"}, {"measurement": "IC50", "setting": "CYP2D6; [5]", "value": 4.75, "unit": "µM"}, {"measurement": "Inhibition percentage(%) at Top conc.", "setting": "CYP2D6; 0 min", "value": 63.41, "unit": "%"}, {"measurement": "Inhibition percentage(%) at Top conc.", "setting": "CYP2D6; 30 min", "value": 66.54, "unit": "%"}, {"measurement": "IC50 at 5 min", "setting": "CYP2D6; CYP2D6 IC50, human hepatocytes, pre-incubation 0 min", "value": 4.57, "unit": "µM"}, {"measurement": "IC50 at 5 min", "setting": "CYP2D6; [5]", "value": 4.73, "unit": "µM"}]}
